{"source": "patent US10434083B2", "about": "“Transmammary delivery of cyclooxygenase-2 inhibitors for analgesia in neonates” (Iowa State University Research Foundation, Inc., priority 2018, dated 2019)", "key": {"[1]": {"experiment": "Necropsy and histopathology examination of nursing piglets at 21 d", "format": "in vivo, swine", "conditions": "for Kidney: Mild tubular ectasia (number of piglets) / Kidney: Moderate ectasia (number of piglets) / Kidney: Prominent ectasia (number of piglets) / Kidney: Rare tubular ectasia (number of piglets) / Kidney: Within normal limits (number of piglets) / Liver: Within normal limits (number of piglets) / Small Intestine: Within normal limits (number of piglets) / Stomach: Mild gastritis (number of piglets) / Stomach: Mild vasculitis, muscle layer (number of piglets) / Stomach: Within normal limits (number of piglets): nursing piglets, 21 d", "protocol": "Thereafter, sows and piglets in all groups were humanely euthanized and examined for macroscopic signs of NSAID toxicity. Necropsies were performed on all animals to inspect for macroscopic signs of NSAID toxicity. Samples of kidney, liver, small intestine and stomach were sectioned into 0.5-1 cm slices and placed in plastic jars containing 10% buffered formalin in a 10:1 formalin:tissue ratio for histopathology examination.\nFormalin-fixed sections of kidney, liver, small intestine and stomach from sows and 3 piglets/litter were trimmed and positioned in cassettes loaded into an automated tissue processor (Sakura VIP 5, Sakura Finetek, Torrance, Calif.) for overnight paraffin infiltration. Processed tissues in cassettes were then placed in a paraffin bath (Sakura Tissue-Tek TEC 5, Sakura Finetek, Torrance, Calif.) after which they were removed from the cassette and oriented in molds. […] Tissue sections were cut at 4 microns from the cooled blocks. Paraffin ribbons with tissue were then laid out on a water bath and the floating tissue sections were collected onto microscope slides. The unstained tissue sections were then mounted on the slide and dried at 60° C. for 20 minutes. Finally, the tissue was deparaffinized and rehydrated for staining by transfer through xylene and a series of decreasing concentrations of alcohol to hematoxylin on an automated stainer (Sakura Tissue-Tek Prisma, Sakura Finetek, Torrance, Calif.). After a tap water rinse, the tissue on the slide was counterstained with eosin, dehydrated in an alcohol series, cleared in xylene and cover slipped (Sakura Tissue-Tek Glas g2) prior to histological examination by a veterinary diagnostician with experience in the histological examination of swine tissues."}, "[2]": {"experiment": "Preweaning piglet deaths per sow treatment group", "format": "in vivo, swine", "experimental": "Protocols involved intramuscular injection of Firocoxib to lactating sows at either 0.5, 1.0, 1.5 or 2 mg/kg, and analysis in sows and select piglets at 21 days post treatment. Pregnant Yorkshire×Landrace sows (mean±SEM bodyweight, 250.3±7.61 kg) that were approximately 1 week before farrowing were sourced from a commercial swine farm. Each sow was examined by a veterinarian to confirm that she was healthy and pregnant. A unique numerical ear tag (Allflex Global Ear Tags, Allflex USA, Inc., DFW Airport, TX) was placed in the right ear of each sow for identification. The sows were housed in a commercial swine operation at MVS (West Point, Nebr.) in accordance with the recommendations in the Guide for the Care and Use of Agricultural Animals in Agricultural Use and Research and Teaching (Guide for the Care and Use of Agricultural Animals in Agricultural Research and Teaching, 2010). Sows were placed in Quad- or Euro-style farrowing stalls (Thorp Equipment, Thorp, Wis.), depending on availability. Regardless of stall type, each sow was housed in a farrowing crate measuring 0.6 m×2.1 m. Quad and Euro crates had piglet creep areas of 7.0 m^2 and 6.4 m^2, respectively. After farrowing, a heat lamp was provided on one side of the creep area for the piglets in each crate. All sows were fed a diet that met or exceeded National Research Council (NRC, 2012) nutrient requirements and water was provided ad libitum. Each litter provided at least six male and three female piglets for sampling with the exception of one sow that had 5 males and 4 females in the litter, and one sow that had 3 males and 6 females in the litter. Piglets were clinically examined and weighed on Study Day 0 prior to dosing. Cross fostering of the litters was permitted. Bodyweights were used to randomly assign sows to 1 of 4 treatment groups (n=4 sows/group) as detailed in Table 3.\nA sample size of 4 sows was selected to describe the pharmacokinetics of firocoxib. For the comparison of plasma cortisol concentrations and average daily gain in bodyweight (ADG), a sample size of 36 piglets/treatment group was calculated to provide Statistical Power of 0.8 assuming an alpha of 0.05, sigma of 0.54 and delta of 0.20. At the time of study commencement (T0), sows received a single dose of firocoxib (Equioxx Injection, Merial, Duluth, Ga.) (Lot number 4VP07, Expiration Date November 2017) administered at either 0.5 mg/kg, 1.0 mg/kg, 1.5 mg/kg, or 2.0 mg/kg by IM injection into the right lateral neck using an 18-gauge, 1.5-inch needle attached to a 20-mL syringe (Table 3). In cases where the calculated dose volume exceeded 20-mL, the remaining volume was administered via IM injection in the left lateral neck muscle."}}, "data": [{"compound": "CC1(C)OC(=O)C(OCC2CC2)=C1c1ccc(S(C)(=O)=O)cc1", "note": "[firocoxib]", "values": [{"measurement": "Kidney: Mild tubular ectasia (number of piglets)", "setting": "[1]; sow dose 0.5 mg/kg IM", "result": 5}, {"measurement": "Kidney: Moderate ectasia (number of piglets)", "setting": "[1]; sow dose 0.5 mg/kg IM", "result": 0}, {"measurement": "Kidney: Prominent ectasia (number of piglets)", "setting": "[1]; sow dose 0.5 mg/kg IM", "result": 5}, {"measurement": "Kidney: Rare tubular ectasia (number of piglets)", "setting": "[1]; sow dose 0.5 mg/kg IM", "result": 1}, {"measurement": "Kidney: Within normal limits (number of piglets)", "setting": "[1]; sow dose 0.5 mg/kg IM", "result": 1}, {"measurement": "Liver: Within normal limits (number of piglets)", "setting": "[1]; sow dose 0.5 mg/kg IM", "result": 12}, {"measurement": "Small Intestine: Within normal limits (number of piglets)", "setting": "[1]; sow dose 0.5 mg/kg IM", "result": 12}, {"measurement": "Stomach: Mild gastritis (number of piglets)", "setting": "[1]; sow dose 0.5 mg/kg IM", "result": 5}, {"measurement": "Stomach: Mild vasculitis, muscle layer (number of piglets)", "setting": "[1]; sow dose 0.5 mg/kg IM", "result": 2}, {"measurement": "Stomach: Within normal limits (number of piglets)", "setting": "[1]; sow dose 0.5 mg/kg IM", "result": 5}, {"measurement": "Kidney: Mild tubular ectasia (number of piglets)", "setting": "[1]; sow dose 1.0 mg/kg IM", "result": 9}, {"measurement": "Kidney: Moderate ectasia (number of piglets)", "setting": "[1]; sow dose 1.0 mg/kg IM", "result": 0}, {"measurement": "Kidney: Prominent ectasia (number of piglets)", "setting": "[1]; sow dose 1.0 mg/kg IM", "result": 0}, {"measurement": "Kidney: Rare tubular ectasia (number of piglets)", "setting": "[1]; sow dose 1.0 mg/kg IM", "result": 1}, {"measurement": "Kidney: Within normal limits (number of piglets)", "setting": "[1]; sow dose 1.0 mg/kg IM", "result": 2}, {"measurement": "Liver: Within normal limits (number of piglets)", "setting": "[1]; sow dose 1.0 mg/kg IM", "result": 12}, {"measurement": "Small Intestine: Within normal limits (number of piglets)", "setting": "[1]; sow dose 1.0 mg/kg IM", "result": 12}, {"measurement": "Stomach: Mild gastritis (number of piglets)", "setting": "[1]; sow dose 1.0 mg/kg IM", "result": 6}, {"measurement": "Stomach: Mild vasculitis, muscle layer (number of piglets)", "setting": "[1]; sow dose 1.0 mg/kg IM", "result": 2}, {"measurement": "Stomach: Within normal limits (number of piglets)", "setting": "[1]; sow dose 1.0 mg/kg IM", "result": 4}, {"measurement": "Kidney: Mild tubular ectasia (number of piglets)", "setting": "[1]; sow dose 1.5 mg/kg IM", "result": 9}, {"measurement": "Kidney: Moderate ectasia (number of piglets)", "setting": "[1]; sow dose 1.5 mg/kg IM", "result": 0}, {"measurement": "Kidney: Prominent ectasia (number of piglets)", "setting": "[1]; sow dose 1.5 mg/kg IM", "result": 3}, {"measurement": "Kidney: Rare tubular ectasia (number of piglets)", "setting": "[1]; sow dose 1.5 mg/kg IM", "result": 0}, {"measurement": "Kidney: Within normal limits (number of piglets)", "setting": "[1]; sow dose 1.5 mg/kg IM", "result": 0}, {"measurement": "Liver: Within normal limits (number of piglets)", "setting": "[1]; sow dose 1.5 mg/kg IM", "result": 12}, {"measurement": "Small Intestine: Within normal limits (number of piglets)", "setting": "[1]; sow dose 1.5 mg/kg IM", "result": 12}, {"measurement": "Stomach: Mild gastritis (number of piglets)", "setting": "[1]; sow dose 1.5 mg/kg IM", "result": 6}, {"measurement": "Stomach: Mild vasculitis, muscle layer (number of piglets)", "setting": "[1]; sow dose 1.5 mg/kg IM", "result": 3}, {"measurement": "Stomach: Within normal limits (number of piglets)", "setting": "[1]; sow dose 1.5 mg/kg IM", "result": 3}, {"measurement": "Kidney: Mild tubular ectasia (number of piglets)", "setting": "[1]; sow dose 2.0 mg/kg IM", "result": 5}, {"measurement": "Kidney: Moderate ectasia (number of piglets)", "setting": "[1]; sow dose 2.0 mg/kg IM", "result": 1}, {"measurement": "Kidney: Prominent ectasia (number of piglets)", "setting": "[1]; sow dose 2.0 mg/kg IM", "result": 3}, {"measurement": "Kidney: Rare tubular ectasia (number of piglets)", "setting": "[1]; sow dose 2.0 mg/kg IM", "result": 0}, {"measurement": "Kidney: Within normal limits (number of piglets)", "setting": "[1]; sow dose 2.0 mg/kg IM", "result": 3}, {"measurement": "Liver: Within normal limits (number of piglets)", "setting": "[1]; sow dose 2.0 mg/kg IM", "result": 12}, {"measurement": "Small Intestine: Within normal limits (number of piglets)", "setting": "[1]; sow dose 2.0 mg/kg IM", "result": 12}, {"measurement": "Stomach: Mild gastritis (number of piglets)", "setting": "[1]; sow dose 2.0 mg/kg IM", "result": 2}, {"measurement": "Stomach: Mild vasculitis, muscle layer (number of piglets)", "setting": "[1]; sow dose 2.0 mg/kg IM", "result": 1}, {"measurement": "Stomach: Within normal limits (number of piglets)", "setting": "[1]; sow dose 2.0 mg/kg IM", "result": 9}, {"measurement": "kidneys with ectatic tubules (number)", "setting": "[1]; piglets, all treatment groups", "result": 10}, {"measurement": "sections of stomach lining with mild gastritis (number)", "setting": "[1]; piglets, all treatment groups", "result": 19}, {"measurement": "Preweaning piglet deaths, Total", "setting": "[2]; sow treatment group #1, 0.5 mg/kg", "result": 2}, {"measurement": "Preweaning piglet deaths, Total", "setting": "[2]; sow treatment group #2, 1.0 mg/kg", "result": 3}, {"measurement": "Preweaning piglet deaths, Total", "setting": "[2]; sow treatment group #3, 1.5 mg/kg", "result": 3}, {"measurement": "Preweaning piglet deaths, Total", "setting": "[2]; sow treatment group #4, 2.0 mg/kg", "result": 0}]}]}
